# Columns and labels:
# Format in all cases: biochemical
# [1] = system: culture of Flammulina velutipes strain IFO 30601; assay: Decolorization / oxidative degradation / oxidative polymerization of pigments and lignin by the culture; details: for specificity of the culture compared with bilirubin oxidase from the genus Myrothecium: Table 3; for reaction of the substrate catalyzed by the culture (in words): neutral conditions; for Specific Activity, Culture: reaction pH 7.0, 25° C., without sign = degradation or decolorization, minus = polymerization activity
# Description: The decolorization activity on the respective dyes can be evaluated by measuring as the dye, Evans' Blue, Acid Blue 80, Remazol Brilliant Blue R and Acid Violet 17 in the step c) for their absorbance at 600 nm, 600 nm, 600 nm and 550 nm respectively. In addition, regarding the lignin, the oxidative degradation activity on the respective dyes can be evaluated by measuring the absorbance at 450 nm in the step c). The oxidative polymerization activity on the respective dyes can be evaluated by measuring as the dye, Indigo Carmine and Natural Orange 6 in the step c) for their absorbance at 600 nm and 450 nm respectively.
# Next, chemical changes of various substrates generated by the action of the culture for the substrate specificity of the culture obtained in (2) of Example 1 was examined by determining a change in the absorbance of the buffer containing each substrate.
# As the substrate, commercially available pigments (Evans' Blue, Acid Blue 80, Remazol Brilliant Blue R, Indigo Carmine, Acid Violet 17, Natural Orange) and lignin (trade name: Lignin Alkali, manufactured by Tokyo Kasei) were used.
# (§1) Concretely, 950 μl of 105.3 mM sodium phosphate buffer (pH 7.0) containing a substrate adjusted to have a final concentration as shown in Table 2 was pre-incubated at 25° C. for 5 minutes. Next, 50 μl of the culture solution was added to the resulting product, and thereafter, the mixture was reacted in a cuvette. The absorbance for each substrate was determined at a measuring wavelength with a spectrophotometer (manufactured by Shimadzu Corporation, trade name: UV-2450). For the comparison, the examination was also made for bilirubin oxidase from a strain belonging to the genus Myrothecium in the same manner by replacing the above-mentioned buffer with 105.3 mM Tris-HCl buffer (pH 8.0).
# (§2) Here, 1 U (unit) of the activity was defined as an amount for increasing the absorbance by 1 per one minute. In Table 3, a specific activity shown without a sign indicates degradation activity or decolorization activity, and a specific activity shown with—(minus) indicates polymerization activity.
# [2] = molecular target: T1, bilirubin oxidase from a strain belonging to the genus Myrothecium (Albifimbria verrucaria, UniProt Q12737); assay: Decolorization / degradation / polymerization of pigments and lignin by bilirubin oxidase (comparison); details: reaction pH 8.0; without sign = degradation or decolorization, minus = polymerization activity
# T1 sequence (Q12737 39-572): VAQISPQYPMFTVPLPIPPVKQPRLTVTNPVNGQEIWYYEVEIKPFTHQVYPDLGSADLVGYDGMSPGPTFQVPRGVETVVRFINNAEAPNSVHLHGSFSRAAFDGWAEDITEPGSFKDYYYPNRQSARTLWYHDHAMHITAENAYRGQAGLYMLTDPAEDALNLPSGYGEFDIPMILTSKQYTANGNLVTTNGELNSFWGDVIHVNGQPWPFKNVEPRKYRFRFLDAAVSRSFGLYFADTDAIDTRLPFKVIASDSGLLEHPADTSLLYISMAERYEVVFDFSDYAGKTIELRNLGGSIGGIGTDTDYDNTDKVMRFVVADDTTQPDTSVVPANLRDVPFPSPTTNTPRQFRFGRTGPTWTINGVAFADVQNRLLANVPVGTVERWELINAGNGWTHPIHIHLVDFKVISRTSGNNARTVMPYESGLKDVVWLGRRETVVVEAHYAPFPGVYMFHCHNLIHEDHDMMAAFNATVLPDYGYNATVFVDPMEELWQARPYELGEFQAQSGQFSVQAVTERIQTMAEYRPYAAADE
# Procedure: as §1, §2
# [3] = system: culture of Flammulina velutipes strain IFO 30601; assay: Substrate specificity of the culture (phenol oxidase-like activity, Table 1); details: pH 7.0; determined wavelength per substrate (Table 1)
# [4] = system: culture of Flammulina velutipes strain IFO 30601; assay: Oxidative coupling reaction with 4-aminoantipyrine by the culture
# Procedure: Next, the oxidative coupling reaction of the culture obtained in (2) in Example 1 mentioned above was determined by using color development as an index by the oxidative condensation of the substrate (hydrogen donor) with 4-aminoantipyrine, catalyzed by the culture of the present invention.
# As the hydrogen donors, there were used phenolic compounds (phenol, 2-methoxyphenol, 2,6-dimethoxyphenol, catechol, resorcinol, hydroquinone, pyrogallol, gallic acid, propyl gallate, 1-naphthol, catechin), aminophenolic compounds (o-aminophenol, m-aminophenol, p-aminophenol), diaminophenolic compounds (o-phenylenediamine, m-phenylenediamine, p-phenylenediamine), and heterocyclic compounds (5-hydroxyindole, 2,6-diaminopyridine).
# The above-mentioned culture solution was added to a reaction system containing 4-aminoantipyrine and an optional hydrogen donor. Thereafter, the activity of the culture of the present invention was assayed by determining a change in absorbance at 490 nm for the phenolic compound, the diaminophenolic compound and the heterocyclic compound, or determining a change in absorbance at 450 nm for the aminophenolic compound. As to a substrate hardly soluble in water, there was used one obtained by dissolving the substrate in a small amount of dimethyl sulfoxide and diluting the resulting solution with deionized water to a desired concentration. In Table 4, DMSO is an abbreviation for dimethyl sulfoxide.
# (§3) Concretely, 190 μl of 105.3 mM phosphate buffer (pH 7.0) containing 0.4 μmol of a substrate and 4.0 μmol of 4-aminoantipyrine was pre-incubated in wells of a 96-well microplate [manufactured by Corning, Costor (registered trademark) 3368] at 25° C. for 1 minute. Next, 10 μl of the above-mentioned culture solution was added to the resulting mixture, and thereafter, the mixture was incubated for 1 hour. A change in absorbance at 490 nm or 450 nm was determined for the resulting product. One unit (U) of the activity regarding the oxidative coupling reaction was defined as an amount for increasing the absorbance by 1 per one minute.
# [5] = molecular target: T2, bilirubin oxidase from the strain of the genus Myrothecium (Albifimbria verrucaria, UniProt Q12737); assay: Oxidative coupling reaction with 4-aminoantipyrine by bilirubin oxidase (comparison); details: reaction pH 8.0, substrate 2.0 mM
# T2 sequence (Q12737 39-572): T1 sequence (Q12737 39-572)
# Procedure: as §3
# In addition, for the comparison, the examination was made in the same manner for bilirubin oxidase from the strain of the genus Myrothecium except that the above-mentioned buffer was replaced with 105.3 mM Tris-HCl buffer (pH 8.0).
# [6] = system: culture of Flammulina velutipes strain IFO 30601; assay: Direct oxidation reaction by the culture
# Procedure: Further, the direct oxidation reaction of the culture obtained in the above-mentioned example was determined by using color development due to oxidative polymerization of a substrate generated by the direct action of the culture of the present invention on the substrate as an index.
# As the substrates, there were used diaminophenolic compounds (2-chloro 1,4-phenylenediamine, p-phenylenediamine, 2,5-diaminotoluene, N-phenyl-p-phenylenediamine, toluylene-3,4-diamine, m-phenylenediamine), aminophenolic compounds (o-aminophenol, m-aminophenol, 5-amino-o-cresol, p-aminophenol, p-methylaminophenol), and phenolic compounds (2,6-dimethoxyphenol, catechol, resorcinol, hydroquinone, pyrogallol, gallic acid, propyl gallate, 1-naphthol, […], 2,3,4-trihydroxybenzophenone, 2,3,4,4-tetrahydroxybenzophenone). As to a substrate hardly soluble in water, there was used one obtained by dissolving the substrate in a small amount of dimethyl sulfoxide and diluting the resulting solution with deionized distilled water to a desired concentration. In Table 6, %” indicates volume/volume %.
# (§4) Concretely, 180 μl of 0.89 mM sodium phosphate buffer (pH 7.0) containing […] substrate was pre-incubated in wells of a 96-well microplate [manufactured by Corning, Costor (registered trademark) 3368] at 25° C. for 1 minute. Next, 20 μl of the above-mentioned culture solution was added to the resulting mixture. A change in absorbance at 490 nm, 450 nm or 405 nm was determined for the resulting product, depending on the substrate. Here, 1 U (unit) of the activity regarding the direct oxidative reaction was defined as an amount for increasing the absorbance by 1 per one minute.
# [7] = system: laccase from Japanese lacquer; assay: Direct oxidation reaction by laccase (comparison); details: reaction pH 7.0; 2-chloro 1,4-phenylenediamine = 100
# Procedure: Next, 20 μl of the above-mentioned culture solution was added to the resulting mixture. A change in absorbance at 490 nm, 450 nm or 405 nm was determined for the resulting product, depending on the substrate. Here, 1 U (unit) of the activity regarding the direct oxidative reaction was defined as an amount for increasing the absorbance by 1 per one minute.
# (§5) In addition, for the comparison, the substrate specificities at pH 7.0 for laccase from Japanese lacquer and bilirubin oxidase from the strain belonging to the genus Myrothecium were also examined in the same manner.
# [8] = molecular target: T3, bilirubin oxidase from the strain belonging to the genus Myrothecium (Albifimbria verrucaria, UniProt Q12737); assay: Direct oxidation reaction by bilirubin oxidase (comparison); parameters: concentration or dose not given beside the values; details: reaction pH 7.0; 2-chloro 1,4-phenylenediamine = 100
# T3 sequence (Q12737 39-572): T1 sequence (Q12737 39-572)
# Procedure: as §4, §5
# The relative activity (%) for each substrate is shown in Table 7, in which the measured value for a case where a representative chemical dye 2-chloro 1,4-phenylenediamine was used as a substrate is 100.
# [9] = pH 7.0, relative activities of Table 7
SMILES,specificity of the culture compared with bilirubin oxidase from the genus Myrothecium [1],reaction of the substrate catalyzed by the culture (in words) [1],"Specific Activity, Culture [1] [U/mg Protein]","Specific Activity, Bilirubin Oxidase from Strain Belonging to Genus Myrothecium [2] [U/mg Protein]",other results
O=C1/C(=C2\Nc3ccc(S(=O)(=O)[O-])cc3C2=O)Nc2ccc(S(=O)(=O)[O-])cc21.[Na+].[Na+] [Indigo Carmine],significantly differs,oxidative polymerization reaction,−0.22,0.46,–
O=C1C=C(O)C(=O)c2ccccc21 [Natural Orange 6],–,oxidative polymerization reaction,−0.18,−0.11,–
Nc1c(S(=O)(=O)[O-])cc(Nc2cccc(S(=O)(=O)CCOS(=O)(=O)[O-])c2)c2c1C(=O)c1ccccc1C2=O.[Na+].[Na+] [Remazol Brilliant Blue R],significantly differs,strongly catalyzed,0.97,−0.18,–
Cc1cc(-c2ccc(/N=N/c3ccc4c(S(=O)(=O)[O-])cc(S(=O)(=O)[O-])c(N)c4c3O)c(C)c2)ccc1/N=N/c1ccc2c(S(=O)(=O)[O-])cc(S(=O)(=O)[O-])c(N)c2c1O.[Na+].[Na+].[Na+].[Na+] [Evans' Blue],–,–,0.32,1.22,–
Cc1cc(C)c(S(=O)(=O)[O-])c(C)c1Nc1ccc(Nc2c(C)cc(C)c(S(=O)(=O)[O-])c2C)c2c1C(=O)c1ccccc1C2=O.[Na+].[Na+] [Acid Blue 80],–,–,0.30,0.39,–
Nc1ccc(O)cc1 [p-Aminophenol],–,–,–,–,"U (activity of the culture on the substrate) [3]: 0.072 U; activity of the culture for the substrate in words, oxidative coupling reaction ([4]; pH 7.0): especially high activity; Specific Activity, Culture (oxidative coupling with 4-aminoantipyrine) ([4]; reaction pH 7.0, 25° C., substrate 2.0 mM): 12.7 U/mg Protein; Specific Activity, Bilirubin Oxidase from Strain Belonging to Genus Myrothecium (oxidative coupling with 4-aminoantipyrine) [5]: 7.0 U/mg Protein; activity of the culture for the substrate in words, direct oxidation reaction ([6]; pH 7.0): especially high activity; activity of the culture compared with bilirubin oxidase from the genus Myrothecium, direct oxidation [6, 9]: higher activity; activity of the culture compared with laccase from Japanese lacquer, direct oxidation [6, 9]: higher activity; Relative Activity, Culture (direct oxidation) ([6]; reaction pH 7.0, 2-chloro 1,4-phenylenediamine = 100): 235%; Relative Activity, Laccase from Japanese Lacquer (direct oxidation) [7]: 109%; Relative Activity, Bilirubin Oxidase from Strain Belonging to Genus Myrothecium (direct oxidation) [8]: 70%"
CCN(CC)c1ccc(C(=C2C=CC(=[N+](CC)Cc3cccc(S(=O)(=O)[O-])c3)C=C2)c2ccc(N(CC)Cc3cccc(S(=O)(=O)[O-])c3)cc2)cc1.[Na+] [Acid Violet 17],significantly differs,oxidative decolorization reaction,0.12,−0.40,–

# Source: US20050170485A1, “Culture having phenol oxidase-like activity” (priority 2002, published 2005)
